Read-outs that look alike come from different tables or passages of the source.
What was measured:
[1] = test system: experimental asthma induced in guinea pigs by antigen aerosols; experiment: Passive shock in guinea pigs (experimental asthma induced by antigen aerosols); type: in vivo; settings: Cavia porcellus, read-out: Passive shock guinea pig ED50
Excerpt: to the determination of the passive shock resulting from the study of experimental asthma induced in guinea pigs by antigen aerosols and […]

[2] = target: purified phosphodiesterase; experiment: In vitro inhibition of purified phosphodiesterase; type: biochemical
Excerpt: (§1) The compounds of the invention and the prior art product fenspiride of the prior art used as reference substance were subjected to various tests described in ARZNEIMITTEL-FORSCHUNG/DRUG RESEARCH 37 (II), 12, 1354-1355 (1987), especially
to assays in vitro on the inhibition of purified phosphodiesterase.

[3] = test system: histamine-induced bronchoconstriction; experiment: Armitage test: histamine-induced bronchoconstriction test in guinea pigs; type: in vivo; settings: guinea pig p.o.
Excerpt: as §1
the histamine-induced bronchoconstriction test in guinea pigs, […]

Toxicity LD50 in mouse = type: in vivo; settings: in vivo
Excerpt: as §1

mice's ear edema = experiment: Mice's ear edema (technique of Young et al.); type: in vivo; settings: for decrease of the mice's ear edema: per os, 36 micromole/kg
Experimental: The compounds of the present invention were also tested on the mice's ear edema according to the technique of John M. YOUNG et al., Journal of […], 82, 363-371 (1984). Administrated, per os, at a dose of 36 micromole/kg, the derivatives of the present invention provoke a decrease of the mice's ear edema of from 15 to 50% according to the compounds.

mouse = experiment: Toxicity LD50 in mouse; type: in vivo; settings: PO
Excerpt: as §1

[4] = +calmoduline, read-out: Phosphodiesterase inhibition IC50 +calmoduline (converted)
[5] = basal, read-out: Phosphodiesterase inhibition IC50 basal (converted)
[6] = Cavia porcellus, po, read-out: Armitage test % protection
[7] = Cavia porcellus, po, dose 1 mg/kg, read-out: Armitage test % protection

Compound `COc1cc2c(cc1OC)C(=O)N(CCCN1CCC(OC(c3ccccc3)c3ccccc3)CC1)C2` [Example 12, 2-(4-benzhydryloxypiperidinopropyl)-5,6-dimethoxyisoxindole] has an ED50 ([1]; guinea pig, PO) of 20 mg/kg, an IC50 [2, 4] of 20 µM and an IC50 [2, 5] of 70 µM. The inhibition in vivo at 5 mg/kg [3, 6] was 79% and the LD50 (Toxicity LD50 in mouse; PO) was 800 mg/kg.
`O=C1c2ccccc2CN1CCN1CCC(OC(c2ccccc2)c2ccccc2)CC1` [Example 2, 2-(4-benzhydryloxypiperidinoethyl)isoxindole] gave an ED50 ([1]; guinea pig, PO) of 2.5 to 5 mg/kg, an IC50 [2, 5] greater than 100 µM and an inhibition in vivo at 1 mg/kg [3, 7] of 36%. The LD50 (Toxicity LD50 in mouse; PO) was greater than 800 mg/kg.
With `O=c1[nH]c2ccccc2n1CCN1CCC(OC(c2ccccc2)c2ccccc2)CC1` [1[(2-oxo-3-benzimidazolinyl-ethyl]-4-benzhydryloxy-piperidine] the “decrease of the mice's ear edema” value (mice's ear edema) was “lower than 15%”.
Work on `O=C1Cc2ccccc2N1CCN1CCC(SC(c2ccccc2)c2ccccc2)CC1` [Example 9, 1-(4-benzhydrylthiopiperidinoethyl)-oxindole] yielded an inhibition in vivo at 5 mg/kg [3, 6] of 60%.
In the case of `O=C1Cc2ccccc2N1CCN1CCC(OC(c2ccc(F)cc2)c2ccc(F)cc2)CC1` [Example 3, 1-(4-bis-para-fluorobenzhydryloxypiperidinoethyl)oxindole], the “Phosphodiesterase inhibition IC50 basal” value ([2]; basal) is reported as “inactif”, the inhibition in vivo at 1 mg/kg [3, 7] is reported as 47.6% and the LD50 (Toxicity LD50 in mouse; PO) is reported as less than 800 mg/kg.
In the case of `O=C1c2ccccc2CN1CCCN1CCC(OC(c2ccccc2)c2ccccc2)CC1` [Example 16, 2-(4-benzhydryloxypiperidinopropyl)-isoxindole], the ED50 ([1]; guinea pig, PO) is reported as 5 mg/kg, the IC50 [2, 4] is reported as 30 µM and the IC50 [2, 5] is reported as greater than 100 µM. For the same compound, the inhibition in vivo at 5 mg/kg [3, 6] was 82% and the LD50 (Toxicity LD50 in mouse; PO) was greater than 800 mg/kg.
In the case of `O=C1Cc2ccccc2N1CCN1CCC(OC(c2ccc(F)cc2)c2ccc(F)cc2)CC1` [Example 7, 1-(4-bis-para-fluorobenzhydryloxypiperidinoethyl)oxindole], the ED50 ([1]; po) is reported as 2.5 to 5 mg/kg, the “Phosphodiesterase inhibition IC50 basal” value ([2]; basal) is reported as “inactif” and the “Armitage test % protection” value ([3]; dose 1 mg/kg) is reported as “+50%”. The “Toxicity LD50” value (mouse) was less than 800 mg/kg.
Work on `O=C1Cc2cc(F)ccc2N1CCCN1CCC(OC(c2ccccc2)c2ccccc2)CC1` [Example 17, 1-(4-benzhydryloxypiperidinopropyl)-5-fluoro-oxindole] yielded an ED50 ([1]; guinea pig, PO) of 40 mg/kg, an IC50 [2, 4] of 10 µM and an IC50 [2, 5] greater than 100 µM. The inhibition in vivo at 5 mg/kg [3, 6] was 75% and the LD50 (Toxicity LD50 in mouse; PO) was greater than 800 mg/kg.
Work on `O=C1Cc2cc(F)ccc2N1CCN1CCC(OC(c2ccccc2)c2ccccc2)CC1` [Example 8, 1-(4-benzhydryloxypiperidinoethyl)-5-fluoro-oxindole] yielded an ED50 ([1]; po) of 2.5 to 5 mg/kg, an IC50 [2, 5] greater than 10 µM and an inhibition in vivo at 1 mg/kg [3, 7] of 72%.
`O=C1c2ccc(F)cc2CN1CCN1CCC(OC(c2ccccc2)c2ccccc2)CC1` [Example 18, 2-(4-benzhydryloxypiperidinoethyl)-5-fluoro-isoxindole] gave an ED50 ([1]; guinea pig, PO) of 40 mg/kg, an IC50 [2, 4] of 20 µM and an IC50 [2, 5] of 100 µM. The inhibition in vivo at 5 mg/kg [3, 6] was 68% and the LD50 (Toxicity LD50 in mouse; PO) was greater than 800 mg/kg.
`O=C1c2cc(F)ccc2CN1CCN1CCC(OC(c2ccccc2)c2ccccc2)CC1` [Example 20, 2-(4-benzhydryloxypiperidinoethyl)-6-fluoro-isoxindole] gave an ED50 ([1]; guinea pig, PO) of 40 mg/kg, an IC50 [2, 4] of 20 µM and an IC50 [2, 5] greater than 100 µM. The inhibition in vivo at 5 mg/kg [3, 6] was 43% and the LD50 (Toxicity LD50 in mouse; PO) was greater than 800 mg/kg.
`CC(C)C1C(=O)N(CCN2CCC(OC(c3ccccc3)c3ccccc3)CC2)c2ccccc21` (stereo not drawn) [Example 15, 1-(4-benzhydryloxypiperidinoethyl)-3-isopropyloxindole] gave an ED50 ([1]; guinea pig, PO) of 5 mg/kg, an IC50 [2, 4] of 30 µM and an IC50 [2, 5] of 100 µM. It also gave an inhibition in vivo at 5 mg/kg [3, 6] of 50% and an LD50 (Toxicity LD50 in mouse; PO) greater than 800 mg/kg.
Compound `O=C1Cc2ccccc2N1CCN1CCC(C(c2ccc(F)cc2)c2ccc(F)cc2)CC1` [Example 10, 1-(4-bis-para-fluorobenzhydrylpiperidinoethyl)oxindole] has an IC50 [2, 4] of 100 µM, an IC50 [2, 5] greater than 100 µM and an inhibition in vivo at 5 mg/kg [3, 6] of 78%. It also gave an LD50 (Toxicity LD50 in mouse; PO) of less than 800 mg/kg.
With `O=c1[nH]c2ccccc2n1CCCN1CCN(C(c2ccccc2)c2ccccc2)CC1` [oxatomide] the “decrease of the mice's ear edema” value (mice's ear edema) was “lower than 15%”.
For `O=C1Cc2ccccc2N1CCN1CCC(OC(c2ccccc2)c2ccccc2)CC1` [Example 1, 1-(4-benzhydryloxypiperidinoethyl)oxindole], the ED50 ([1]; ip) was 2.5 mg/kg, the ED50 ([1]; po) was 5 mg/kg and the “Phosphodiesterase inhibition IC50 basal” value ([2]; basal) was “inactif”. For the same compound, the inhibition in vivo at 1 mg/kg [3, 7] was 66% and the LD50 (Toxicity LD50 in mouse; IP) was roughly 200 mg/kg.
With `O=C1Cc2cccc(F)c2N1CCN1CCC(OC(c2ccccc2)c2ccccc2)CC1` [Example 6, 1-(4-benzhydryloxypiperidinoethyl)-7-fluoro-oxindole] the “Phosphodiesterase inhibition IC50 basal” value ([2]; basal) was “inactif” and the inhibition in vivo at 1 mg/kg [3, 7] was 36.6%.
`O=C1Cc2ccccc2N1CCCN1CCC(OC(c2ccccc2)c2ccccc2)CC1` [Example 5, 1-(4-benzhydryloxypiperidinopropyl)-oxindole] gave an IC50 [2, 4] of 100 µM, an IC50 [2, 5] greater than 100 µM and an inhibition in vivo at 1 mg/kg [3, 7] of 72.1%.
`O=C1Cc2ccccc2N1CCCN1CCC(C(c2ccc(F)cc2)c2ccc(F)cc2)CC1` [Example 4, 1-(4-bis-para-fluorobenzhydrylpiperidinopropyl)-oxindole] gave an ED50 ([1]; guinea pig, IP) of 40 mg/kg, an inhibition in vivo at 20 mg/kg ([3]; Cavia porcellus, po, dose 20 mg/kg, read-out: Armitage test % protection) of 59.4% and an LD50 (Toxicity LD50 in mouse; IP) of roughly 200 mg/kg.
With `CC1(C)C(=O)N(CCN2CCC(OC(c3ccccc3)c3ccccc3)CC2)c2ccccc21` [Example 14, 1-(4-benzhydryloxypiperidinoethyl)-3,3-dimethyloxindole] the ED50 ([1]; guinea pig, PO) was greater than 40 mg/kg, the IC50 [2, 4] was 20 µM and the IC50 [2, 5] was 30 µM. For the same compound, the inhibition in vivo at 5 mg/kg [3, 6] was 70% and the LD50 (Toxicity LD50 in mouse; PO) was greater than 800 mg/kg.
With `O=C1NCC2(CCN(CCc3ccccc3)CC2)O1` [Fenspiride, reference compound] the ED50 ([1]; guinea pig, IP) was 5 mg/kg, the ED50 ([1]; guinea pig, PO) was 10 mg/kg and the “activity on mice's ear edema (in words)” value (mice's ear edema; same conditions and same dose (per os, 36 micromole/kg)) was “no activity”. It also gave an IC50 [2, 4] greater than 100 µM, an IC50 [2, 5] greater than 100 µM and an inhibition in vivo at 2.5 mg/kg ([3]; Cavia porcellus, po, dose 2,5 mg/kg, read-out: Armitage test % protection) of 69%. The LD50 (Toxicity LD50 in mouse; PO) was greater than 800 mg/kg.
Work on `O=C1c2ccc(F)cc2CN1CCCN1CCC(OC(c2ccccc2)c2ccccc2)CC1` [Example 19, 2-(4-benzhydryloxypiperidinopropyl)-5-fluoro-isoxindole] yielded an ED50 ([1]; guinea pig, PO) of 10 mg/kg, an IC50 [2, 4] of 20 µM and an IC50 [2, 5] greater than 100 µM. For the same compound, the inhibition in vivo at 5 mg/kg [3, 6] was 68% and the LD50 (Toxicity LD50 in mouse; PO) was greater than 800 mg/kg.
